Reference: patent US10961286B2, “Nucleic acids, vectors, host cells, and methods for recombinantly producing water-soluble membrane proteins” (CORNELL UNIVERSITY, priority 2014, dated 2021)
Read-outs that look alike come from different tables or passages of the source.

What was measured:
[1] = target: T1, EmrE (dimeric, detergent-free OspA-EmrE-ApoAI*) (UniProt P02647+P23895); assay: Ligand binding by tryptophan fluorescence quenching, in vivo solubilized EmrE; parameters: species or system E. coli; details: for binding affinity of OspA-EmrE-ApoAI* compared to detergent-solubilized EmrE: 10 μM protein, EmrE comparator in DDM buffer
T1 construct: made in house; host or cells: E. coli BL21(DE3), pET28a
Description: Fluorescence spectra of protein samples were collected using a Fluorolog-Tau-3 time-resolved spectrofluorometer (Horiba). Protein concentration of OspA-EmrE-ApoAI* in SEC buffer and EmrE in DDM containing buffer (20 mM Tris-HCl, pH 7.5, 150 mM NaCl, and 0.08% w/v DDM) was 10 μM. Fluorescence spectra using a 295-nm excitation were collected after each volume of ligand. A small magnetic stir bar was added to the 1-cm path-length quartz cuvette containing either the sample or buffer. The stirring speed was set such that the surface was not noticeably disturbed. Approximately 1 min was allowed between the addition of ligand and the beginning of spectra collection. A total of 3 replicates were performed with the first sample preparation to control for experimental variability. After this, only one experimental replicate of the following second and third sample preparations were performed. Thus, each ligand-binding curve reflects the average of 3 replicates from 3 different protein preparations to control for biological and preparation variability. A 10-nm slit width was used for both excitation and emission. The interval was set at 2.0 nm and the integration time at 0.1 s. Only one scan of the emission between 300 and 400 nm was collected per titration. […] Quenching of fluorescence was recorded and plotted using GraphPad PRISM 6.
It was next determined whether EmrE that had been solubilized by fusion to ApoAI* was able to bind to known ligands. […] There are a total of 14 aromatic amino acids in EmrE (4 tryptophans, 5 tyrosines, and 5 phenylalanines), some of which participate in ligand binding and protein stability and permit determination of binding constants based on fluorescence quenching (Bay et al., “Spectroscopic Analysis of Small Multidrug Resistance Protein EmrE in the Presence of Various Quaternary Cation Compounds,” Biochim. Biophys. Acta 1818:1318-31 (2012), which is hereby incorporated by reference in its entirety). The ligand binding activity of dimeric, detergent-free OspA-EmrE-ApoAI* was measured and compared to detergent-solubilized EmrE. […]

[2] = target: in vitro solubilized EmrE (Escherichia coli, UniProt P23895); details: cited from earlier work
[3] = target: T2, CYP17A1 (Homo sapiens, UniProt P05093); assay: Lyase assay: augmentation of CYP17A1 lyase activity by cyt b5 variants; type: biochemical
T2 construct: microsomes containing native CYP17A1 (5 pmol); made in house; host or cells: transformed yeast (microsomes)
T2 sequence (P05093 1-508): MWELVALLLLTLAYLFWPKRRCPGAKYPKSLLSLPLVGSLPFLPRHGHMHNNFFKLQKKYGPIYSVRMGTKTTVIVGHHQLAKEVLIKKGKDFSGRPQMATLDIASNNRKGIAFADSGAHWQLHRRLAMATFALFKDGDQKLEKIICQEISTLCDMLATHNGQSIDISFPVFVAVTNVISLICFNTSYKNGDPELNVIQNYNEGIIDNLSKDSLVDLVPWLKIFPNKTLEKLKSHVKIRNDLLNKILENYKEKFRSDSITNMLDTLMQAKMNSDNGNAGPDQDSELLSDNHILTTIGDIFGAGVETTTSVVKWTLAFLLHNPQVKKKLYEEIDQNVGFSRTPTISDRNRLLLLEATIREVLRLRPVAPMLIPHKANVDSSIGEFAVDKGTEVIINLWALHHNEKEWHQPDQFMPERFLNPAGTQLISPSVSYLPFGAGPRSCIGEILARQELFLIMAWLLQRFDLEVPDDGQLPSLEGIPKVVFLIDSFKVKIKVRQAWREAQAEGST
Description: In a 2-ml polypropylene tube, microsomes containing native CYP17A1 (5 pmol) and cytochrome P450 oxidoreductase ([…]), at room temperature for 5 min before adding substrate. The reaction mixture was then diluted to 0.2 ml with 50 mM potassium phosphate buffer (pH 7.4), and substrate 17-hydroxypregnelonone (17-P5; 5 μM with 80,000 CPM in methanol, 2% of incubation volume) was added. The resulting mixture was pre-incubated at 37° C. for 3 min before adding NADPH (1 mM) and incubating at 37° C. for another 20 min. The reaction mixture was extracted with 1 ml dichloromethane, and the organic phase was dried under nitrogen flow. Steroids were analyzed using an Agilent 1260 Infinity HPLC system with UV detector and β-RAM4 in-line scintillation counter (LabLogic, Brandon, Fla.). Extracted steroid products were dissolved in 20 μl of methanol, and 5 μl injections were resolved with a 50×2.1 mm, 2.6 μm, C8 Kinetex column (Phenomenex, Torrance, Calif.), equipped with a guard column at a flow rate of 0.4 mL min^−1. A methanol/water linear gradient was used: 27% methanol from 0 to 0.5 min, 39% to 16 min, 44% to 20 min, 60% to 22 min, 71% to 30 min, 75% to 30.5 min, 27% to 33 min. Products were identified by retention times of external standards chromatographed at the beginning and ends of the experiments. The flow rate of the scintillation cocktail (Bio-SafeII, Research Products International, Mount Prospect, Ill.) was 1.2 mL min^−1, and the data were processed with Laura4 software (LabLogic).

[4] = target: T3, cytochrome P450c17 (17α-hydroxylase/17,20-lyase; CYP17A1) (Homo sapiens, UniProt P05093); details: cited from earlier work
T3 sequence (P05093 1-508): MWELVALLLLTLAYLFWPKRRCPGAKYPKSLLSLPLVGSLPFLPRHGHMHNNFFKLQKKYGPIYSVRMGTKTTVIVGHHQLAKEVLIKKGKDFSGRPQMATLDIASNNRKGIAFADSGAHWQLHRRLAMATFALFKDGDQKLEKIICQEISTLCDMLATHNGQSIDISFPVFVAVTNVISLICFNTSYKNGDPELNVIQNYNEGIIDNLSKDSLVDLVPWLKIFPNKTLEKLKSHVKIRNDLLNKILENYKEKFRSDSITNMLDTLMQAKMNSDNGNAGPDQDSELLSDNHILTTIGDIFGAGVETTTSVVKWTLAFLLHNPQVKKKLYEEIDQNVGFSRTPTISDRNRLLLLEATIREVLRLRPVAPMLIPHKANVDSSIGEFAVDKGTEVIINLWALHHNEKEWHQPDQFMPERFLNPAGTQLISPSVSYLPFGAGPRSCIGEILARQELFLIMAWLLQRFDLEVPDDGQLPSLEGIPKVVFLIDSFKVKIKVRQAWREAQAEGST

C[n+]1ccc(-c2cc[n+](C)cc2)cc1 [MV, methyl viologen]
binding affinity of OspA-EmrE-ApoAI* compared to detergent-solubilized EmrE [1]: higher | Kd ([1]; in vivo solubilized EmrE, detergent-free): 48 µM | Kd ([2]; in vitro solubilized EmrE in dodecylmaltoside): 46.2 µM | Kd ([2]; in vitro solubilized EmrE in small unilamellar vesicles): 38.2 µM | Kd ([2]; in vitro solubilized EmrE in sodium dodecyl sulphate): 5.4 µM

c1ccc([P+](c2ccccc2)(c2ccccc2)c2ccccc2)cc1 [TPP+, tetraphenylphosphonium]
binding affinity of OspA-EmrE-ApoAI* compared to detergent-solubilized EmrE [1]: higher

B1: detergent-solubilized cyt b5: wild-type human cytochrome b5 that had been detergent solubilized (protein)
chain: MAEQSDEAVKYYTLEEIQKHNHSKSTWLILHHKVYDLTKFLEEHPGGEEVLREQAGGDATENFEDVGHSTDAREMSKTFIIGELHPDDRPKLNKPPETLITTIDSSSSWWTNWVIPAISAVAVALMYRLYMAED
stimulation of lyase activity compared to the in vivo solubilized version [3]: slightly better stimulator of lyase activity | stimulation of CYP17A1 lyase activity (DHEA formed from 17-P5) ([3]; 5-25 pmol cyt b5 variant): plateaued | stimulation of CYP17A1 lyase activity ([3]; at slightly lower concentrations): dose-dependent stimulation | stimulation of 17,20-lyase activity ([4]; recombinant cyt b5 from E. coli, literature): stimulated 17,20-lyase activity

B2: cyt b5: human cytochrome b5, 134-residue bitopic membrane protein (protein, UniProt P00167 1-134, looked up)
chain: MAEQSDEAVKYYTLEEIQKHNHSKSTWLILHHKVYDLTKFLEEHPGGEEVLREQAGGDATENFEDVGHSTDAREMSKTFIIGELHPDDRPKLNKPPETLITTIDSSSSWWTNWVIPAISAVAVALMYRLYMAED
modifications: full-length
notes: human cytochrome b5, 134-residue bitopic membrane protein
increase of the rate of the 17,20-lyase reaction ([4]; a molar equivalent of cyt b5): 10 fold
